Several values for one entry are separate records, joined by “and”; a condition that tells them apart may be missing. Identical values can stand only once. Like-named read-outs stand apart in the source and are kept apart here.
Assay: Phase 2 toxicokinetics of brincidofovir and cidofovir in plasma
Assay type: in vivo, Sprague-Dawley CD rats
Design: Imputed Concentration, Mean: unit: ng/mL
Conditions: for cidofovir Concentration (C): individual animals; for concentration at 1 h / concentration at 2 h / concentration at 8 h / concentration at 24 h / concentration at 0 h: Sprague-Dawley CD, rat, intravenous, 1 mg/kg; for concentration at 1 h / concentration at 2 h / concentration at 8 h / concentration at 24 h / concentration at 0 h / Imputed Concentration, individual animals / Imputed Concentration, Mean: plasma, BLQ imputed as zero
Protocol: Plasma samples (108) were collected 2 hours following the initiation of dosing on Day 1 and Day 7 (Group 1), or at 1, 2, 8, and 24 hours following the initiation of dosing on Day 1, and prior to administration and at 2, 8, and 24 hours following the initiation of dosing on Day 7 (Groups 2 and 3), and analyzed to determine the concentrations of brincidofovir and the metabolite, cidofovir), by LC/MS/MS.
Approximately 0.4 mL of whole blood was obtained via the tail vein from each animal at each time point. Animals were not fasted prior to blood collection. Blood was collected into tubes containing K2EDTA anticoagulant and placed on wet ice in an upright position, per facility SOP prior to processing. Plasma was separated by centrifugation (10 minutes at approximately 2000 g, at approximately 2-8° C.). Approximately 0.10 mL of plasma was transferred into a single cryotube appropriately labeled with study number, animal number, time point, date of sampling and sample type. Remaining plasma was transferred into a second cryotube and retained as a backup sample. Plasma frozen at approximately −80±10° C. within approximately 2 hours after collection of each blood sample until analysis. Animals were euthanized (CO2 inhalation) after the final blood collection.
In general, TK parameters were estimated using mean plasma concentrations of brincidofovir and cidofovir derived from the composite blood sampling design using Phoenix WinNonLin (V 6.3).
A composite blood sampling design was used such that each rat was sampled twice per sampling day. Blood was collected via tail vein from unanesthetized animals into tubes containing anticoagulant and placed on wet ice in an upright position. Animals were not fasted prior to blood collection. Plasma was separated by centrifugation (for 10 minutes at approximately 2000 g, at approximately 2-8° C.), and transferred into individually labeled cryotubes. All cryotubes containing the collected plasma samples were appropriately labeled as to study number, animal number, time point, date of sampling and sample type. All plasma samples were obtained and frozen at approximately −80° C. (±10° C.) within approximately 2 hours after collection of each blood sample until analysis.
Rat plasma bioanalysis was conducted by Pyxant Laboratories. Plasma samples were analyzed for concentrations of brincidofovir and cidofovir using a method based upon protein precipitation extraction followed by LC-MS/MS analysis; calibration ranges for brincidofovir and cidofovir were 1.00-1500 ng/mL and 5.00-750 ng/mL, respectively, (Pyxant study number 3025) for a 50 μL aliquot of rat plasma. Sample analysis for ISR was not performed as part of this non-GLP study.
For the generation of Mean Profiles, all sample concentrations that were below the limit of quantitation (BLQ) were set to 0.
All pharmacokinetic parameter estimates were completed using a Non-Compartmental Model (Model 200-202 for IV infusion administration). The AUClast and AUCinf were calculated using the linear up log down trapezoidal rule.

[1] = brincidofovir 1 mg/kg 2-h IV infusion, female rats, Day 7, 0 h
[2] = brincidofovir 1 mg/kg 2-h IV infusion, female rats, Day 7, 2 h
[3] = brincidofovir 1 mg/kg 2-h IV infusion, female rats, Day 7, 8 h
[4] = brincidofovir 1 mg/kg 2-h IV infusion, female rats, Day 7, 24 h
[5] = brincidofovir 1 mg/kg 2-h IV infusion, male rats, Day 7, 2 h
[6] = brincidofovir 1 mg/kg 2-h IV infusion, male rats, Day 7, 8 h
[7] = brincidofovir 1 mg/kg 2-h IV infusion, male rats, Day 7, 24 h
[8] = brincidofovir 15 mg/kg 2-h IV infusion, female rats, Day 1, 1 h
[9] = brincidofovir 15 mg/kg 2-h IV infusion, female rats, Day 1, 2 h
[10] = brincidofovir 15 mg/kg 2-h IV infusion, female rats, Day 1, 8 h
[11] = brincidofovir 15 mg/kg 2-h IV infusion, female rats, Day 1, 24 h
[12] = brincidofovir 15 mg/kg 2-h IV infusion, female rats, Day 7, 0 h
[13] = brincidofovir 15 mg/kg 2-h IV infusion, female rats, Day 7, 2 h
[14] = brincidofovir 15 mg/kg 2-h IV infusion, male rats, Day 1, 1 h
[15] = brincidofovir 15 mg/kg 2-h IV infusion, male rats, Day 1, 2 h
[16] = brincidofovir 15 mg/kg 2-h IV infusion, male rats, Day 1, 8 h
[17] = brincidofovir 15 mg/kg 2-h IV infusion, male rats, Day 1, 24 h
[18] = brincidofovir 15 mg/kg 2-h IV infusion, male rats, Day 7, 0 h
[19] = brincidofovir 15 mg/kg 2-h IV infusion, male rats, Day 7, 2 h

Nc1ccn(C[C@@H](CO)OCP(=O)(O)O)c(=O)n1 [Cidofovir]
cidofovir Concentration (C) (brincidofovir 1 mg/kg, Female, Day 1, 1 h): BLQ | cidofovir Concentration (C) (brincidofovir 1 mg/kg, Female, Day 1, 8 h): BLQ | cidofovir Concentration (C) (brincidofovir 1 mg/kg, Female, Day 1, 24 h): BLQ | cidofovir Concentration (C) (brincidofovir 1 mg/kg, Female, Day 7, 0 h): BLQ | cidofovir Concentration (C) (brincidofovir 1 mg/kg, Female, Day 7, 24 h): BLQ | cidofovir Concentration (C) (brincidofovir 1 mg/kg, Male, Day 1, 1 h): BLQ | cidofovir Concentration (C) (brincidofovir 1 mg/kg, Male, Day 1, 2 h): BLQ | cidofovir Concentration (C) (brincidofovir 1 mg/kg, Male, Day 1, 8 h): BLQ | cidofovir Concentration (C) (brincidofovir 1 mg/kg, Male, Day 1, 24 h): BLQ | cidofovir Concentration (C) (brincidofovir 1 mg/kg, Male, Day 7, 0 h): BLQ | cidofovir Concentration (C) (brincidofovir 1 mg/kg, Male, Day 7, 2 h): BLQ | cidofovir Concentration (C) (brincidofovir 1 mg/kg, Male, Day 7, 24 h): BLQ | cidofovir Concentration (C) (brincidofovir 15 mg/kg, Female, Day 7, 0 h): BLQ | cidofovir Concentration (C) (brincidofovir 15 mg/kg, Male, Day 1, 1 h): BLQ | cidofovir Concentration (C) (brincidofovir 15 mg/kg, Male, Day 7, 0 h): BLQ | concentration at 1 h (female, brincidofovir 1 mg/kg 2-h IV infusion, female rats, Day 1, 1 h, read-out: Imputed Concentration, Mean): 0 ng/mL | concentration at 1 h (female, brincidofovir 1 mg/kg 2-h IV infusion, female rats, Day 1, 1 h, read-out: Imputed Concentration, individual animals): 0 ng/mL | concentration at 2 h (female, brincidofovir 1 mg/kg 2-h IV infusion, female rats, Day 1, 2 h, read-out: Imputed Concentration, Mean): 9.35 ng/mL | concentration at 2 h (female, brincidofovir 1 mg/kg 2-h IV infusion, female rats, Day 1, 2 h, read-out: Imputed Concentration, individual animals): 9.62 ng/mL | concentration at 8 h (female, brincidofovir 1 mg/kg 2-h IV infusion, female rats, Day 1, 8 h, read-out: Imputed Concentration, Mean): 4.24 ng/mL | concentration at 24 h (female, brincidofovir 1 mg/kg 2-h IV infusion, female rats, Day 1, 24 h, read-out: Imputed Concentration, Mean): 0 ng/mL | concentration at 24 h (female, brincidofovir 1 mg/kg 2-h IV infusion, female rats, Day 1, 24 h, read-out: Imputed Concentration, individual animals): 0 ng/mL | concentration at 0 h (female, brincidofovir 1 mg/kg 2-h IV infusion, female rats, Day 7, 0 h, read-out: Imputed Concentration, individual animals): 0 ng/mL | concentration at 1 h (male, brincidofovir 1 mg/kg 2-h IV infusion, male rats, Day 1, 1 h, read-out: Imputed Concentration, Mean): 0 ng/mL | concentration at 1 h (male, brincidofovir 1 mg/kg 2-h IV infusion, male rats, Day 1, 1 h, read-out: Imputed Concentration, individual animals): 0 ng/mL | concentration at 2 h (male, brincidofovir 1 mg/kg 2-h IV infusion, male rats, Day 1, 2 h, read-out: Imputed Concentration, Mean): 0 ng/mL | concentration at 2 h (male, brincidofovir 1 mg/kg 2-h IV infusion, male rats, Day 1, 2 h, read-out: Imputed Concentration, individual animals): 0 ng/mL | concentration at 8 h (male, brincidofovir 1 mg/kg 2-h IV infusion, male rats, Day 1, 8 h, read-out: Imputed Concentration, Mean): 1.95 ng/mL | concentration at 24 h (male, brincidofovir 1 mg/kg 2-h IV infusion, male rats, Day 1, 24 h, read-out: Imputed Concentration, Mean): 0 ng/mL | concentration at 24 h (male, brincidofovir 1 mg/kg 2-h IV infusion, male rats, Day 1, 24 h, read-out: Imputed Concentration, individual animals): 0 ng/mL | concentration at 0 h (male, brincidofovir 1 mg/kg 2-h IV infusion, male rats, Day 7, 0 h, read-out: Imputed Concentration, Mean): 0 ng/mL | concentration at 0 h (male, brincidofovir 1 mg/kg 2-h IV infusion, male rats, Day 7, 0 h, read-out: Imputed Concentration, individual animals): 0 ng/mL | Imputed Concentration, individual animals (brincidofovir 1 mg/kg 2-h IV infusion, female rats, Day 1, 1 h): 0.00 ng/mL | Imputed Concentration, individual animals (brincidofovir 1 mg/kg 2-h IV infusion, female rats, Day 1, 2 h): 6.22 ng/mL and 12.2 ng/mL | Imputed Concentration, individual animals (brincidofovir 1 mg/kg 2-h IV infusion, female rats, Day 1, 8 h): 7.12 ng/mL and 5.60 ng/mL and 0.00 ng/mL | Imputed Concentration, individual animals (brincidofovir 1 mg/kg 2-h IV infusion, female rats, Day 1, 24 h): 0.00 ng/mL | Imputed Concentration, Mean [1]: 0.00 ng/mL | Imputed Concentration, individual animals [1]: 0.00 ng/mL | Imputed Concentration, Mean [2]: 15.0 ng/mL | Imputed Concentration, individual animals [2]: 13.5 ng/mL and 13.8 ng/mL and 17.6 ng/mL | Imputed Concentration, Mean [3]: 7.57 ng/mL | Imputed Concentration, individual animals [3]: 9.51 ng/mL and 7.84 ng/mL and 5.36 ng/mL | Imputed Concentration, Mean [4]: 0.00 ng/mL | Imputed Concentration, individual animals [4]: 0.00 ng/mL | Imputed Concentration, individual animals (brincidofovir 1 mg/kg 2-h IV infusion, male rats, Day 1, 1 h): 0.00 ng/mL | Imputed Concentration, individual animals (brincidofovir 1 mg/kg 2-h IV infusion, male rats, Day 1, 2 h): 0.00 ng/mL | Imputed Concentration, individual animals (brincidofovir 1 mg/kg 2-h IV infusion, male rats, Day 1, 8 h): 5.85 ng/mL and 0.00 ng/mL (2×) | Imputed Concentration, individual animals (brincidofovir 1 mg/kg 2-h IV infusion, male rats, Day 1, 24 h): 0.00 ng/mL | Imputed Concentration, individual animals (brincidofovir 1 mg/kg 2-h IV infusion, male rats, Day 7, 0 h): 0.00 ng/mL | Imputed Concentration, Mean [5]: 0.00 ng/mL | Imputed Concentration, individual animals [5]: 0.00 ng/mL | Imputed Concentration, Mean [6]: 5.73 ng/mL | Imputed Concentration, individual animals [6]: 5.67 ng/mL and 5.45 ng/mL and 6.07 ng/mL | Imputed Concentration, Mean [7]: 0.00 ng/mL | Imputed Concentration, individual animals [7]: 0.00 ng/mL | Imputed Concentration, Mean [8]: 15.1 | Imputed Concentration, individual animals [8]: 14.5 and 20.5 and 10.3 | Imputed Concentration, Mean [9]: 28.7 | Imputed Concentration, individual animals [9]: 10.9 and 41.2 and 34.1 | Imputed Concentration, Mean [10]: 38.6 | Imputed Concentration, individual animals [10]: 37.3 and 37.7 and 40.7 | Imputed Concentration, Mean [11]: 22.1 | Imputed Concentration, individual animals [11]: 24.6 and 23.2 and 18.6 | Imputed Concentration, Mean [12]: 0.00 | Imputed Concentration, individual animals [12]: 0.00 | Imputed Concentration, Mean [13]: 34.5 | Imputed Concentration, individual animals [13]: 20.2 and 49.1 and 34.2 | Imputed Concentration, individual animals (brincidofovir 15 mg/kg 2-h IV infusion, female rats, Day 7, 8 h): 36.4 and 54.2 | Imputed Concentration, Mean [14]: 5.35 | Imputed Concentration, individual animals [14]: 8.97 and 0.00 and 7.08 | Imputed Concentration, Mean [15]: 18.0 | Imputed Concentration, individual animals [15]: 25.9 and 13.1 and 15.1 | Imputed Concentration, Mean [16]: 32.8 | Imputed Concentration, individual animals [16]: 35.8 and 29.5 and 33.0 | Imputed Concentration, Mean [17]: 16.7 | Imputed Concentration, individual animals [17]: 20.5 and 14.0 and 15.5 | Imputed Concentration, Mean [18]: 0.00 | Imputed Concentration, individual animals [18]: 0.00 | Imputed Concentration, Mean [19]: 24.0 | Imputed Concentration, individual animals [19]: 38.8 and 15.0 and 18.3 | Imputed Concentration, individual animals (brincidofovir 15 mg/kg 2-h IV infusion, male rats, Day 7, 8 h): 38.4 and 31.1 and 28.8
